Experimental data from US11773368B2, “Culture method for differentiating primordial germ cells into functionally mature oocytes” (TOKYO UNIVERSITY OF AGRICULTURE, priority 2015, dated 2023).

Tests used:
Assay type in all cases: cell-based, mouse
[1] = tested on: ovaries cultured for 17 days; assay: Histological analysis of ovary obtained by in vitro culture (H&E, laminin immunofluorescence)
Method: The ovaries cultured for 17 days in (i) FBS group or (v) FBS/10 μM ICI group and the ovaries from female mouse at 10 days after birth were processed for hematoxylin-eosin staining and laminin immunofluorescence staining.
Concretely, the ovaries were fixed for 4 hours at room temperature in 1% paraformaldehyde (PFA)/0.1% glutaraldehyde in 0.05 M phosphate buffer. For H&E staining, the ovaries were embedded in paraffin blocks after a routine protocol, and 4-μm-thick serial sections were prepared. After H&E staining, sections were observed under an IX71 microscope (Olympus). For laminin immunofluorescence staining, ovaries were cut into four to eight pieces, and the tissue sections were incubated for 3 days at 4° C. with an anti-laminin rabbit polyclonal antibody (Abcam) at a dilution of 1:100. Then the tissue sections of the ovaries were incubated for 3 days at 4° C. with an Alexa Fluor 488-conjugated goat anti-rabbit IgG at a dilution of 1:500 (Molecular Probes, Thermo Fisher Scientific Inc.). The obtained tissue sections of the ovaries were further processed for 4′,6-diamidino-2-phenylindole (DAPI; Life Technologies) staining. The tissue sections of the ovaries were observed under Zeiss LSM 710 confocal microscope.

in vitro-matured eggs = assay: In vitro fertilization and embryo transfer with in vitro-mature egg
Method: After 17 hours of the culture, the eggs with expanded cumulus cells were transferred into TYH medium (LSI Medience Corporation) and fertilized with epididymal sperm. In (ii) SPS group, (iv) FBS/SPS group, (v) FBS/ICI group, about 27 to 58% of eggs which processed for in vitro fertilization (IVF) were normally fertilized. Normally fertilized eggs with 2 pronuclei were cultured in KSOM medium. About 83 to 97% Embryos from the fertilized eggs developed to the 2-cell stage. The embryos developed to the 2-cell stage by the culture were transferred into the oviducts of pseudopregnant females at 0.5 dpc. Offspring were delivered by natural means or by caesarean section at 19.5 dpc. As a result, about 14 to 40% of the transferred embryos developed to offspring. The obtained offspring were raised by foster mothers. The offspring were weaned at about 4 weeks of age. […] As mentioned above, there has been no report that eggs obtained by in vitro culture in which the primordial germ cell was used as the starting material developed to offspring. […] In in vitro culture method for producing the functional egg from the primordial germ cell according to this invention, seven pups from one ovary were obtained at a maximum, and on average, 0.3 to 3.3 pups were obtained from one ovary. Pups were physically normal, and they developed normally. Male and female mice developed from eggs differentiated and matured in in vitro culture could produce the offspring after sexual maturation (Table. 2 and FIG. 12).

[2] = tested on: cumulus-oocyte complexes (COCs); assay: In vitro maturation to egg
Method: The cumulus-oocyte complexes (COCs) were collected from the secondary follicles obtained by “3. In vitro growth culture of secondary follicle” described above. Then, COCs were cultured with α-MEM containing 5% FBS, 0.1 IU/mL FSH, 1.2 IU/mL chorionic gonadotropin (Gonatropin, ASKA Pharmaceutical), and […] (Gibco, Thermo Fisher Scientific Inc.) for 17 hours. Control COCs were collected from adult female mice 44 hours after the injection with equine CG (Serotropin; ASKA Pharmaceutical). The obtained COCs obtained from the adult female mice, in vivo-derived COCs, were cultured with α-MEM containing 5% FBS, 0.1 IU/mL FSH, 1.2 IU/mL chorionic gonadotropin, and 4 ng/mL epidermal growth factor in the same way to in vitro-derived COCs. As a result of in vitro maturation, in (ii) SPS group, (iv) FBS/SPS group, and (v) FBS/ICI group, 77 to 95% oocytes released the first polar body after 17 hours and became MII oocytes (FIGS. 11b and c).

[3] = FBS/1 μM ICI group (ICI day 5-11)
[4] = FBS/1 μM ICI group (ICI day 5-11), 19 cultured gonads
[5] = FBS/5 μM ICI group (ICI day 5-11)
[6] = FBS/5 μM ICI group (ICI day 5-11), 6 cultured gonads
[7] = FBS/10 μM ICI group (ICI day 5-11)
[8] = FBS/10 μM ICI group (ICI day 5-11), 6 cultured gonads
[9] = Vitrification FBS/1 μM ICI (vitrified-warmed gonads)
[10] = Vitrification FBS/1 μM ICI (vitrified-warmed gonads), 4 cultured gonads

Structure (SMILES): C[C@]12CC[C@@H]3c4ccc(O)cc4C[C@@H](CCCCCCCCC[S+]([O-])CCCC(F)(F)C(F)(F)F)[C@H]3[C@@H]1CC[C@@H]2O (stereo partly drawn) [ICI, 7α, 17β-[9-([4,4,5,5,5-pentafluoropentyl]sulfinyl)nonyl]estra-1,3,5(10)-triene-3,17-diol]
- laminin localization (immunofluorescence) ([1]; (v) FBS/10 μM ICI group, day 17): laminin is circularly localized around the follicle
- multioocyte follicle (multiple oocytes in one follicle) ([1]; (v) FBS/ICI group, FIG. 5b): very few
- No. of eggs fertilized normally, proportion to the number of collected follicles (in vitro-matured eggs; [3]): 26.2%
- No. of embryos developed to two-cell, proportion to the number of collected follicles (in vitro-matured eggs; [3]): 24.2%
- No. of pups developed from embryos, proportion to the number of collected follicles (in vitro-matured eggs; [3]): 4.8%
- No. of pups from an ovary (in vitro-matured eggs; [3]): 1.6
- No. of eggs fertilized normally (in vitro-matured eggs; [4]): 168
- No. of embryos developed to two-cell (in vitro-matured eggs; [4]): 155
- No. of pups developed from embryos (in vitro-matured eggs; [4]): 31
- No. of eggs fertilized normally, proportion to the number of collected follicles (in vitro-matured eggs; [5]): 30.1%
- No. of embryos developed to two-cell, proportion to the number of collected follicles (in vitro-matured eggs; [5]): 29.2%
- No. of pups developed from embryos, proportion to the number of collected follicles (in vitro-matured eggs; [5]): 6.4%
- No. of pups from an ovary (in vitro-matured eggs; [5]): 3.3
- No. of eggs fertilized normally (in vitro-matured eggs; [6]): 94
- No. of embryos developed to two-cell (in vitro-matured eggs; [6]): 91
- No. of pups developed from embryos (in vitro-matured eggs; [6]): 20
- No. of eggs fertilized normally, proportion to the number of collected follicles (in vitro-matured eggs; [7]): 29.3%
- No. of embryos developed to two-cell, proportion to the number of collected follicles (in vitro-matured eggs; [7]): 27.3%
- No. of pups developed from embryos, proportion to the number of collected follicles (in vitro-matured eggs; [7]): 3.8%
- No. of pups from an ovary (in vitro-matured eggs; [7]): 3.2
- No. of eggs fertilized normally (in vitro-matured eggs; [8]): 148
- No. of embryos developed to two-cell (in vitro-matured eggs; [8]): 138
- No. of pups developed from embryos (in vitro-matured eggs; [8]): 19
- No. of eggs fertilized normally, proportion to the number of collected follicles (in vitro-matured eggs; [9]): 33.3%
- No. of embryos developed to two-cell, proportion to the number of collected follicles (in vitro-matured eggs; [9]): 26.3%
- No. of pups developed from embryos, proportion to the number of collected follicles (in vitro-matured eggs; [9]): 3.5%
- No. of pups from an ovary (in vitro-matured eggs; [9]): 0.5
- No. of eggs fertilized normally (in vitro-matured eggs; [10]): 19
- No. of embryos developed to two-cell (in vitro-matured eggs; [10]): 15
- No. of pups developed from embryos (in vitro-matured eggs; [10]): 2
- No. of oocytes matured into MII, proportion to the number of collected follicles [2, 3]: 50.1%
- No. of oocytes matured into MII [2, 4]: 321
- No. of oocytes matured into MII, proportion to the number of collected follicles [2, 5]: 53.8%
- No. of oocytes matured into MII [2, 6]: 168
- No. of oocytes matured into MII, proportion to the number of collected follicles [2, 7]: 50.7%
- No. of oocytes matured into MII [2, 8]: 256
- No. of oocytes matured into MII, proportion to the number of collected follicles [2, 9]: 64.9%
- No. of oocytes matured into MII [2, 10]: 37
